From PMC10376326, “Novel Acylselenourea Derivatives: Dual Molecules with Anticancer and Radical Scavenging Activity” (Antioxidants, 2023)
Entries after “also recorded” stand apart in the source; their conditions may differ.

How the values were obtained:
[1] = test system: MDA-MB-231, HT-29, HTB-54 and DU-145 cancer cell lines; test: MTT cell viability assay, statements over the panel of cancer cell lines; format: cell-based, human; conditions: for IC50: Homo sapiens, span over HTB-54, MDA-MB-231 and DU-145; for cell growth: in at least three of the four cancer cell lines tested
How it was run: (§1)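 MDA-MB-231, HTB-54 and DU-145 grown in RPMI 1640, HT-29 in McCoy's 5A (10% FBS). Output is % cell growth; IC50 determined; ≥3 experiments in quadruplicate.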

DU-145 cells [2] = test: Protective effects against H2O2-induced oxidative stress in DU-145 cells (MTT); format: cell-based, human; conditions: for fold increase of cell survival: 0.0015 mg/mL, DU-145 treated with 300, 250 and 200 µM H2O2; for Increase-fold: increase-fold of cell survival
Method: Cells were treated with the selected compounds and then oxidative damage to DU-145 cells was induced using different concentrations of H2O2 (200, 250 and 300 µM), and cell viability was assessed by the MTT method. Briefly, 2.5 × 10^4 DU-145 cells per well were added in 96-well plates. After 24 h of incubation, DMSO, 1.I, 2.I, 5.I, 7.II, 10.II, and ascorbic acid were added to each well at two different concentrations (0.0015 mg/mL and 0.0003 mg/mL) and incubated for 1 h. After that, H2O2 was added at the concentrations of 200, 250, and 300 µM, and the cells were incubated for 12 h to induce cell damage. MTT assay was used to measure cell viability. For each treatment, the mean cell viability was calculated from three independent experiments. The DMSO-treated controls were assigned with a cell viability value of 100% (Vcontrol). The results are expressed as a cell growth inhibition % caused by H2O2 and the increased fold of cell survival, as follows: • Cells without compounds, only treated with H2O2: (2) % Cell growth inhibition=Acontrol - Asample/Acontrol × 100
• Cells treated with compounds and H2O2:
(3) % Cell growth inhibition=Asample (compound) - Asample (compound+H2O2)/Acontrol × 100
(4) Increase-fold of cell survival=% cell growth inhibition (H2O2)/% cell growth inhibition (compound+ H2O2)
The standard error of the mean (SEM) was calculated in at least three independent experiments performed in quadruplicates.

[3] = test system: HT-29 (colon) cancer cell line; test: MTT cell viability assay, HT-29; format: cell-based; conditions: Homo sapiens, HT-29, 48 h, read-out: Cell growth %; for activity at 10 µM: HT-29, 10 µM; for activity at 50 µM: HT-29, 50 µM
How it was run: as §1

DU-145 cells [4] = test: Total ROS measurement (Muse Oxidative Stress Kit); format: cell-based, human; conditions: DU-145, 16 h; 1.I and 5.I 10 µM, H2O2 0.9 µM
Method: Total ROS levels were measured in DU-145 cells treated with 1.I and 5.I using the Muse Oxidative Stress Kit (EMD Millipore, Billerica, MA, USA) according to the manufacturer’s protocol. This kit uses Muse oxidative stress reagent to detect ROS inside cells. This kit identifies two different cell populations: ROS(−) cells and ROS(+) cells. In the graph, the ROS(−) population is represented by the M1 peak and the ROS(+) cells by the M2 peak. DU-145 cells treated with H2O2 (0.9 µM) were used as positive controls to identify M1 and M2 peaks. Percentages of ROS(−) and ROS(+) cells were measured using the Muse Cell Analyzer.

[5] = compound 0.0003 mg/mL, 200 µM H2O2, DU-145
[6] = compound 0.0003 mg/mL, 250 µM H2O2, DU-145
[7] = compound 0.0003 mg/mL, 300 µM H2O2, DU-145
[8] = compound 0.0015 mg/mL, 200 µM H2O2, DU-145
[9] = compound 0.0015 mg/mL, 250 µM H2O2, DU-145
[10] = compound 0.0015 mg/mL, 300 µM H2O2, DU-145

Row | SMILES | IC50 [1] | cell growth [1] | fold increase of cell survival (DU-145 cells [2]) | Increase-fold (DU-145 cells [2]; [5]) | Increase-fold (DU-145 cells [2]; [6]) | Increase-fold (DU-145 cells [2]; [7]) | Increase-fold (DU-145 cells [2]; [8]) | Increase-fold (DU-145 cells [2]; [9]) | Increase-fold (DU-145 cells [2]; [10]) | activity at 10 µM [3] | activity at 50 µM [3] | ROS PROFILE M2 (ROS(+) cells) (DU-145 cells [4])
1 | CCCNC(=[Se])NC(=O)c1ccco1 [Compound 1.I, N-(propylcarbamoselenoyl)furan-2-carboxamide] | 7.8 to 15.5 µM | below 55% | doubled cell viability; also recorded: greater two-fold increase of cell survival | 2.0 ± 0.0 | 2.0 ± 0.7 | 1.8 ± 0.4 | 2.3 ± 0.7 | 2.7 ± 0.4 | 2.3 ± 0.3 | 44.2 ± 7.1% | 25.5 ± 4.2% | 
2 | CCCNC(=[Se])NC(=O)c1ccccc1 [Compound 5.I, N-(propylcarbamoselenoyl)benzamide] | 7.8 to 15.5 µM | below 55% | doubled cell viability; also recorded: greater two-fold increase of cell survival | 1.9 ± 0.3 | 1.9 ± 0.4 | 1.7 ± 0.4 | 3.1 ± 0.5 | 2.7 ± 0.3 | 2.4 ± 0.4 | 39.6 ± 14.3% | 21.4 ± 1.5% | ~13%
